Measured values: the NIST ThermoML archive (doi:10.1021/je400630f)

Experiment: xn = mol fraction of the nth substance listed
Settings: 100 kPa, Liquid; for viscosity: Capillary tube (Ostwald / Ubbelohde) method

CCCCO [butan-1-ol] + CCO
Settings	mass density, 283.15 K [kg/m3]	mass density, 293.15 K [kg/m3]	mass density, 298.15 K [kg/m3]	mass density, 303.15 K [kg/m3]	mass density, 313.15 K [kg/m3]	viscosity, 283.15 K [mPa·s]	viscosity, 293.15 K [mPa·s]	viscosity, 298.15 K [mPa·s]	viscosity, 303.15 K [mPa·s]	viscosity, 313.15 K [mPa·s]
x2 = 0	817.3	809.6	805.8	802.1	794.3	3.822	2.859	2.558	2.236	1.736
x2 = 0.1002	815.9	808.3	804.5	800.6	792.8	3.528	2.645	2.371	2.091	1.631
x2 = 0.2008	814.5	806.8	803	799.1	791.2	3.198	2.44	2.192	1.938	1.526
x2 = 0.3018	813.3	805.6	801.7	797.8	789.8	2.887	2.235	2.017	1.788	1.42
x2 = 0.4006	811.7	803.8	799.9	795.9	787.9	2.63	2.048	1.853	1.636	1.321
x2 = 0.5002	809.6	801.6	797.7	793.7	785.6	2.404	1.879	1.703	1.506	1.225
x2 = 0.6008	807.7	799.8	795.8	791.8	783.6	2.196	1.715	1.554	1.379	1.135
x2 = 0.7002	805.6	797.5	793.4	789.3	781	1.993	1.567	1.42	1.274	1.058
x2 = 0.7991	803.3	795.1	790.9	786.8	778.3	1.811	1.421	1.299	1.175	0.985
x2 = 0.8997	800.8	792.4	788.2	784.1	776	1.644	1.299	1.188	1.074	0.91

CCCCCCCCCCO [decan-1-ol] + CCO
Settings	mass density, 283.15 K [kg/m3]	mass density, 293.15 K [kg/m3]	mass density, 298.15 K [kg/m3]	mass density, 303.15 K [kg/m3]	mass density, 313.15 K [kg/m3]	viscosity, 283.15 K [mPa·s]	viscosity, 293.15 K [mPa·s]	viscosity, 298.15 K [mPa·s]	viscosity, 303.15 K [mPa·s]	viscosity, 313.15 K [mPa·s]
x2 = 0	836.6	829.9	826.5	823	816.2	22.06	14.5	11.47	9.61	6.9
x2 = 0.09979	835.2	828.4	825	821.5	814.6	18.94	12.7	10.22	8.604	6.221
x2 = 0.2	833.7	826.9	823.5	820	813	16.12	10.94	8.957	7.538	5.513
x2 = 0.3002	831.9	825.1	821.6	818.1	811.1	13.35	9.255	7.687	6.462	4.812
x2 = 0.3999	829.5	822.6	819.1	815.5	808.8	10.96	7.668	6.509	5.468	4.146
x2 = 0.5	827.7	820.6	817	813.5	806.4	8.705	6.278	5.387	4.547	3.51
x2 = 0.6003	824	816.8	813.2	809.5	802.1	6.674	5.013	4.346	3.726	2.92
x2 = 0.6999	820.1	812.8	808.8	805.4	797.9	4.92	3.832	3.374	2.947	2.352
x2 = 0.7997	814.6	807	803.1	799.3	791.5	3.54	2.73	2.459	2.195	1.813
x2 = 0.9	807.9	800	795.9	791.9	783.8	2.319	1.87	1.692	1.534	1.311

CCCCCCCO [heptan-1-ol] + CCO
Settings	mass density, 283.15 K [kg/m3]	mass density, 293.15 K [kg/m3]	mass density, 298.15 K [kg/m3]	mass density, 303.15 K [kg/m3]	mass density, 313.15 K [kg/m3]	viscosity, 283.15 K [mPa·s]	viscosity, 293.15 K [mPa·s]	viscosity, 298.15 K [mPa·s]	viscosity, 303.15 K [mPa·s]	viscosity, 313.15 K [mPa·s]
x2 = 0	829.6	822.6	819.1	815.6	808.4	10.15	7.026	5.947	5.041	3.802
x2 = 0.1001	828.1	821.1	817.6	814	806.8	8.86	6.256	5.311	4.514	3.446
x2 = 0.2008	826.5	819.5	815.9	812.3	805.1	7.718	5.46	4.679	3.999	3.092
x2 = 0.3009	824.8	817.7	814.1	810.4	803.1	6.653	4.681	4.097	3.523	2.751
x2 = 0.4002	822.8	815.5	811.9	808.2	800.8	5.636	4.015	3.565	3.076	2.438
x2 = 0.5001	819.9	812.5	808.8	805.1	797.5	4.683	3.42	3.037	2.653	2.125
x2 = 0.6002	817.6	810.2	806.4	802.6	794.9	3.765	2.869	2.541	2.237	1.818
x2 = 0.6998	813.8	806.2	802.3	798.4	790.6	3.02	2.378	2.09	1.859	1.536
x2 = 0.8	809.9	802.1	798.1	794.1	786.1	2.4	1.943	1.702	1.523	1.28
x2 = 0.8998	804.3	796.2	792.1	788	779.7	1.851	1.535	1.375	1.222	1.04

CCCCCCCCCO [nonan-1-ol] + CCO
Settings	mass density, 283.15 K [kg/m3]	mass density, 293.15 K [kg/m3]	mass density, 298.15 K [kg/m3]	mass density, 303.15 K [kg/m3]	mass density, 313.15 K [kg/m3]	viscosity, 283.15 K [mPa·s]	viscosity, 293.15 K [mPa·s]	viscosity, 298.15 K [mPa·s]	viscosity, 303.15 K [mPa·s]	viscosity, 313.15 K [mPa·s]
x2 = 0	835	828.1	824.7	821.3	814.3	17.44	11.63	9.519	7.806	5.668
x2 = 0.0999	834.1	827.2	823.8	820.3	813.3	14.81	10.17	8.427	6.931	5.108
x2 = 0.2	832	825.1	821.6	818.1	811	12.63	8.712	7.371	6.145	4.534
x2 = 0.3002	830	823.2	819.7	816.1	809	10.68	7.431	6.388	5.34	3.966
x2 = 0.4001	827.9	820.9	817.3	813.8	806.5	8.855	6.275	5.421	4.577	3.443
x2 = 0.4999	825.3	818.2	814.5	810.9	803.6	7.184	5.234	4.529	3.845	2.946
x2 = 0.6001	822.9	815.1	811.4	807.7	800.8	5.578	4.243	3.712	3.169	2.485
x2 = 0.6997	818.3	810.8	807	803.3	795.6	4.208	3.319	2.936	2.536	2.042
x2 = 0.7975	815	807.1	803.3	799.4	791.1	3.169	2.478	2.281	1.961	1.624
x2 = 0.8998	809.5	799.4	795.3	791.3	783	2.22	1.696	1.658	1.415	1.214
